From BindingDB's records for patent US11111253 (University of Pittsburgh, 2021)

Biological target: T1, Signal transducer and activator of transcription 1-alpha/beta (Homo sapiens, UniProt P42224)
T1 sequence (P42224 whole entry): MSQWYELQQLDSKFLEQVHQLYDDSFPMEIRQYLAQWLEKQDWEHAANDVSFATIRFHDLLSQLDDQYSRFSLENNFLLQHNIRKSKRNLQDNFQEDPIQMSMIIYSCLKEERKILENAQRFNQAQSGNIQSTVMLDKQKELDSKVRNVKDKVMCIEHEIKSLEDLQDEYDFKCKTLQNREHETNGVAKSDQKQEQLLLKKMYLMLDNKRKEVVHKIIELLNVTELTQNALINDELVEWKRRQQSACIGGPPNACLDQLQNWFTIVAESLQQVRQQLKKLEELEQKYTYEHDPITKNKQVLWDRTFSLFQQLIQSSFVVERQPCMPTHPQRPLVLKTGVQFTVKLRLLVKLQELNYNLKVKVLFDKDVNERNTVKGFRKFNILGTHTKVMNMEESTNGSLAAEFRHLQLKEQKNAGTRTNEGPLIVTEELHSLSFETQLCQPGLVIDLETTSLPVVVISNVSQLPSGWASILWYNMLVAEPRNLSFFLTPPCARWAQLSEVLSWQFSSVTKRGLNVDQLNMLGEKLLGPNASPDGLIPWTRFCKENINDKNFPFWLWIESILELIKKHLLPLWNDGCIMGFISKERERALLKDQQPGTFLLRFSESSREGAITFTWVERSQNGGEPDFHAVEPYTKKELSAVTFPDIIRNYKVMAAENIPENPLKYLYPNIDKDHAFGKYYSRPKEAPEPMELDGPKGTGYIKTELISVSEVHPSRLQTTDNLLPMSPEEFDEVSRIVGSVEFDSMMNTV
Experiment: Bioassay
Method: Compound samples (in 3-5 mg quantities) were evaluated in a variety of assays. All compound submissions were fully characterized (1H, 13C, IR, FIRMS), satisfied purity criteria (≥95% LC/MC, ELS).

Row | SMILES | IC50 [µM]
1 | COc1ccc(C2=Nn3c(nnc3-c3cc(-c4ccccc4)n[nH]3)SC2)cc1 [US11111253, Compound 8b] | > 50
2 | CC(C)CC1Sc2nnc(-c3[nH]nc4c3CCC4)n2N=C1c1ccc(Cl)c(Cl)c1 (stereo not drawn) [US11111253, Compound 27] | > 50
3 | COc1ccc(C2=Nn3c(nnc3-c3cc(-c4ccccc4)n[nH]3)SC2CC(C)C)cc1 (stereo not drawn) [US11111253, Compound 28] | > 50
